SMILES strings stand for the structures.

One data set concerns jun. Kind of data set: Northern blot analysis of jun mRNA expression in chondrocytes. The format is cell-based, bovine. From the text:
The cytokine interleukin 1 (IL 1) has been used to identify the intermediate second messengers which regulate the expression of fos and jun.
Although IL 1 stimulated superoxide production, it was not known whether IL 1 induced fos and jun expression was dependent on the production of superoxides. In order to elucidate this possibility, the effect of DPI on fos and jun mRNA levels induced by IL 1 was investigated. RNA from chondrocytes treated with IL 1 in the presence and absence of DPI were analyzed by Northern blot analysis using either fos or collagenase cDNA probes. […] Similar data has been obtained for IL 1 induced jun expression. Furthermore, inhibition of fos and jun expression by DPI was sufficient to suppress IL 1 induced and constitutive collagenase expression.
(§1) Bovine articular chondrocytes were isolated and plated as previously described (Kandel R. A. et al. Biochim. Biophys. Acta. 1053, 130-134, 1990). In order to determine the effect of orthovanadate on IL 1 and PMA (phorbol ester) induced responses, chondrocytes were incubated with orthovanadate (100 μM) for 2 hours before stimulation with IL 1 (10 ng/ml) or PMA ([…]). collagenase production was determined by incubating chondrocytes for 24 hours with IL 1 or PMA and the cell conditioned medium was assayed for collagenase activity using an ELISA procedure as described previously (Kandel et al. supra) PLA2 activity was measured by incorporating ^3 H-arachidonic acid (^3 H-AA) into the cells and then incubating the cells with medium containing 1 mg/ml BSA, either alone or in the presence of IL 1 or PMA, for 10 min. as previously described (Conquer, J. A. […], Biochim. Biophys. Acta. 1134, 1-6). The amount of ^3 H-AA liberated into the supernatant was determined. To measure PGE2 production, chondrocytes were incubated for 6 hours in Ham's F12 medium, either alone or with IL 1 or PMA. The supernatant was analyzed by RIA using an antibody specific for PGE2 (Dr. S. A. Jones, Mount Sinai Hospital, Toronto, Can.). In order to examine the expression of c-fos and c-jun, chondrocytes were incubated for 1 hour in the presence of IL-1, PMA or AA (3 μM). Chondrocytes were washed in PBS and the total RNA extracted as previously described (Cruz. et al, 1991, Biochem. J. 277, 327-330). RNA samples were run on formaldehyde agarose gels and transferred to nylon membrane for northern analysis using cDNA probes for c-fos and c-jun.

Another data set relates to PLA2. The data set is described as follows: 3H-arachidonic acid release by chondrocytes (PLA2 activity). The format is cell-based, bovine. Particulars: orthovanadate 100 uM. The method, then: as §1, with “Chondrocytes were washed in PBS and the total RNA extracted as previously described (Cruz. et al, 1991, Biochem. J. 277, 327-330). RNA samples were run on formaldehyde agarose gels and transferred to nylon membrane for northern analysis using cDNA probes for c-fos and c-jun.” left out

The test system of another data set is MDAY-D2 and HTB14 cells. The data set is described as follows: Viability of proliferating tumor cell lines. The format is cell-based, mouse (MDAY-D2); human (HTB14). The method, then: Fos and jun activity are also required for cellular proliferation in many tumor cell lines. Accordingly, the effect of orthovanadate on adherent cells and cell suspensions were examined. MDAY-D2 (a mouse lymphoid cell line grown in suspension) and HTB14 cells (an adherent human primary astrocytoma cell line) were incubated in media containing 0-50 μM orthovanadate for 48 hours. The cells were harvested and the number of viable cells determined.

Data set [1] has as its system KB8, KB8-5 and KB85-11 cells. Kind of data set: Viability of drug resistant ovarian cancer cell lines. The format is cell-based. From the text: The effect of orthovanadate on three ovarian cancer cell lines, KB8, KB8-5 and KB85-11, which have increasing drug resistance, respectively, relative to the parent cell line, KB3-1 was compared. These drug resistant cell lines are not killed by several classes of chemotherapeutic agents such as colchicine, vinblastine and doxorubicin. […] The cells were harvested and the number of viable cells determined.

For data set [2], the system named is MDAY-D2. The data set is described as follows: MDAY-D2 tumor growth in mice, Example 6A. The format is in vivo. From the text: (§2) In order to examine the ability of vanadyl compounds to reduce tumor formation, growth and metastases, a specific animal model which allows investigation of all of these processes in the same animal was chosen. This model involves the injection of a metastatic haematopoietic cell line, MDAY-D2, into mice subcutaneously. These cells form a tumor at the site of injection and its size can be easily determined. In addition, these cells metastasize to the liver and metastases can be detected histologically after day 17 to 19. This model provides a very sensitive and reproducible approach to investigate the effect of vanadyl compounds on tumor growth and metastases.
Using the animal model described above, the effect of subcutaneous administration of orthovanadate on tumor growth was investigated. A total of 15 mice were injected subcutaneously with 1×10^5 MDAY-D2 cells on Day 1. On Day 5, small tumors could be observed at the site of injection. Five mice were injected daily with 50 μl of water alone and 10 mice were injected daily with water containing 10 mg/ml orthovanadate. On day 14, the mice were sacrificed. The tumors were removed from all the animals, photographed, and weighed. FIG. 11 compares sizes of tumors from two untreated and two orthovanadate treated mice. […] In animals treated with water alone, four mice had tumors weighing between 1.18 and 1.68 gms.

Data set [3] deals with MDAY-D2. Kind of data set: Liver metastases of MDAY-D2 cells in mice (histology), Example 8. The format is in vivo.
Excerpt: as §2
Livers were removed from animals treated as described above and prepared for histological examination. FIG. 16 compares liver sections from untreated (C), orthovanadate (VO)(500 μg/day) and vanadyl sulphate (VS)(500 μg/day) treated animals. Nodules are identified with an arrow.

Data set [4] in a line: Tolerability/toxicity of orthovanadate in mice, Example 9. The format is in vivo. From the text:
However, subcutaneous injections of up to 500 μgms orthovanadate is tolerated by the animals. Slow administration of the orthovanadate would decrease toxicity and the animals may tolerate higher doses.

The subject of another data set is superoxides and H2O2. Kind of data set: Levels of superoxides and H2O2 in cells (conclusion of Example 1). The format is cell-based, bovine. The note with it: conclusion from results. The method, then:
as §1, with “Chondrocytes were washed in PBS and the total RNA extracted as previously described (Cruz. et al, 1991, Biochem. J. 277, 327-330). RNA samples were run on formaldehyde agarose gels and transferred to nylon membrane for northern analysis using cDNA probes for c-fos and c-jun.” left out

Data set [5] is described as follows: Dose required to reach serum concentration highly toxic to cancer cells. Set-up: species or system animals. Particulars: in vivo.

Turning to `[O]=[V]([O-])([O-])[O-]` [orthovanadate], the “IL 1, PMA and AA induced c-jun expression” value in the data set on jun (orthovanadate 100 μM, FIGS. 4 and 18) is “completely inhibited”. Further, the “jun expression in response to factors such as IL 1 or arachidonic acid” value in the data set on jun (summary statement) is reported as “completely inhibit”. Moreover, the “IL 1 or PMA induced release of 3H-AA” value with PLA2 was “did not inhibit”. Further, the “time by which cell death was observed” value in the data set with MDAY-D2 and HTB14 cells is at most 24 h. In addition, the “cell death, concentration dependence” value with MDAY-D2 and HTB14 cells (0-50 μM, 48 hours, FIG. 7) is listed as “concentration dependent increase in cell death”. Further, in the data set on MDAY-D2 and HTB14 cells (within 3 days of continuous treatment), the cell death completeness result is on record as “over 98%”. Also, the “effectiveness in killing drug resistant cell lines” value in data set [1] (0-50 μM, 48 hours, FIG. 10) is given as “equally effective”. In addition, in data set [1] (three days), the “cell death by three days of administration” value is “most of the cells had died”. Besides, the “tumor size (five mice)” value with MDAY-D2 [2] (10 mg/ml s.c. daily, day 14, five of 10 mice) is “less than 0.16 gms”. Further, the “mice without detectable tumors” value in the data set with MDAY-D2 [2] (10 mg/ml, 50 μl s.c. daily, day 14, of 10 mice, FIG. 12) is 2 mice. Also, in the data set on MDAY-D2 [2] (FIG. 11), the “tumor size of treated mice versus untreated” value was “either undetectable or considerably smaller”. In addition, the “levels of metastases in liver” value in the data set on MDAY-D2 [3] (500 μg/day, FIG. 16) is given as “did not have detectable levels of metastases”. Further, the “effectiveness at preventing metastases” value in the data set on MDAY-D2 [3] (preliminary results, liver histology) is on record as “effective at preventing metastases”. Besides, in data set [4] (intraperitoneal, high doses), the intraperitoneal toxicity entry is given as “toxic”. The oral toxicity entry in data set [4] (oral, 0.5 mg/ml, laboratory mice) is “gastric toxicity”. The “tolerated dose, subcutaneous” value in data set [4] (subcutaneous injections) is “up to 500 μgms”. Moreover, the “levels of superoxides and H2O2 in cells” value in the data set on superoxides and H2O2 is given as “indirectly reduce”. Besides, the “dose required to reach serum concentrations highly toxic to cancer cells” value in data set [5] is “at least 0.2 mg/kg”.

These data come from US5843481A, “Treatment of proliferative disorders, metastasaes, and drug resistant tumors with vanadate compounds and derivatives or analogues thereof” (priority 1994, dated 1998).
